Data published in PubChem BioAssay AID248 (DTP/NCI, 2004).
Where “and” joins values, the source holds several entries; their conditions need not be identical. Equal entries are not always repeated. Inconclusive results and toxic doses are left out.

Test system: L1210 leukemia ip in BDF1 mice, survival T/C
Assay: NCI In Vivo Anticancer Drug Screen. Data for tumor model L1210 Leukemia (intraperitoneal) in B6D2F1 (BDF1) mice
Settings: endpoint: mean survival time, higher = longer survival
Method in brief: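 Mice bearing the transplanted tumor received compound or vehicle. Survival of the treated group was divided by that of the vehicle-treated control group to give the ratio.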

[1] = dose: 100.0 mg/kg/injection, schedule: Q01DX001 (ip), vehicle: saline
[2] = dose: 200.0 mg/kg/injection, schedule: Q01DX001 (ip), vehicle: saline
[3] = dose: 400.0 mg/kg/injection, schedule: Q01DX001 (ip), vehicle: saline
[4] = dose: 100.0 mg/kg/injection, schedule: Q01DX001 (ip), vehicle: acetone
[5] = dose: 200.0 mg/kg/injection, schedule: Q01DX001 (ip), vehicle: acetone
[6] = dose: 400.0 mg/kg/injection, schedule: Q01DX001 (ip), vehicle: acetone
[7] = dose: 50.0 mg/kg/injection, schedule: Q04DX003 (ip), vehicle: saline with Tween-80
[8] = dose: 100.0 mg/kg/injection, schedule: Q04DX003 (ip), vehicle: saline
[9] = dose: 100.0 mg/kg/injection, schedule: Q04DX003 (ip), vehicle: saline with Tween-80
[10] = dose: 200.0 mg/kg/injection, schedule: Q04DX003 (ip), vehicle: saline with Tween-80
[11] = dose: 400.0 mg/kg/injection, schedule: Q04DX003 (ip), vehicle: saline with Tween-80

CCCN=C(N)c1ccc(NC(=O)c2ccc(C(=O)Nc3ccc(C(N)=NCCC)cc3)cc2)cc1
T/C (dose: 0.16 mg/kg/injection, schedule: Q01DX Z (ip), vehicle: carboxymethylcellulose (CMC)): 105 % of control | T/C (dose: 0.31 mg/kg/injection, schedule: Q01DX Z (ip), vehicle: carboxymethylcellulose (CMC)): 113 % of control | T/C (dose: 1.25 mg/kg/injection, schedule: Q01DX Z (ip), vehicle: carboxymethylcellulose (CMC)): 211 % of control and 257 % of control | T/C (dose: 2.5 mg/kg/injection, schedule: Q01DX Z (ip), vehicle: carboxymethylcellulose (CMC)): 190 % of control | T/C (dose: 3.0 mg/kg/injection, schedule: Q01DX001 (ip), vehicle: carboxymethylcellulose (CMC)): 114 % of control | T/C (dose: 10.0 mg/kg/injection, schedule: Q01DX001 (ip), vehicle: carboxymethylcellulose (CMC)): 169 % of control | T/C (dose: 10.0 mg/kg/injection, schedule: Q01DX001 (ip), vehicle: other): 157 % of control | T/C (dose: 10.0 mg/kg/injection, schedule: Q01DX Z (ip), vehicle: carboxymethylcellulose (CMC)): 113 % of control | T/C (dose: 15.0 mg/kg/injection, schedule: Q01DX001 (ip), vehicle: carboxymethylcellulose (CMC)): 176 % of control and 180 % of control | T/C (dose: 15.0 mg/kg/injection, schedule: Q01DX001 (ip), vehicle: other): 168 % of control and 191 % of control | T/C (dose: 22.5 mg/kg/injection, schedule: Q01DX001 (ip), vehicle: carboxymethylcellulose (CMC)): 268 % of control | T/C (dose: 22.5 mg/kg/injection, schedule: Q01DX001 (ip), vehicle: other): 234 % of control | T/C (dose: 33.0 mg/kg/injection, schedule: Q01DX001 (ip), vehicle: carboxymethylcellulose (CMC)): 257 % of control | T/C (dose: 33.0 mg/kg/injection, schedule: Q01DX001 (ip), vehicle: other): 269 % of control | T/C (dose: 50.0 mg/kg/injection, schedule: Q01DX Z (oral), vehicle: carboxymethylcellulose (CMC)): 104 % of control | T/C (dose: 100.0 mg/kg/injection, schedule: Q01DX Z (oral), vehicle: carboxymethylcellulose (CMC)): 107 % of control | T/C (dose: 200.0 mg/kg/injection, schedule: Q01DX Z (oral), vehicle: carboxymethylcellulose (CMC)): 103 % of control | T/C (dose: 400.0 mg/kg/injection, schedule: Q01DX Z (oral), vehicle: carboxymethylcellulose (CMC)): 98 % of control

CCCCCCCC/C(C=O)=C\c1ccc(C)cc1
T/C [1]: 86 % of control | T/C [2]: 102 % of control | T/C [3]: 87 % of control

Nc1c2c(=O)[nH]c(=O)c2c(N)c2c(=O)c3ccccc3c(=O)c12
T/C [4]: 93 % of control | T/C [5]: 103 % of control | T/C [6]: 103 % of control

ClCCN(CCCl)CCN1c2ccccc2Sc2ccccc21
T/C (dose: 9.37 mg/kg/injection, schedule: Q01DX009 (ip), vehicle: Klucel (hydroxypropylcellulose) (HPC)): 114 % of control | T/C (dose: 12.5 mg/kg/injection, schedule: Q01DX001 (ip), vehicle: Klucel (hydroxypropylcellulose) (HPC)): 114 % of control | T/C (dose: 12.5 mg/kg/injection, schedule: Q04DX003 (ip), vehicle: saline with Tween-80): 103 % of control | T/C (dose: 16.5 mg/kg/injection, schedule: Q01DX001 (ip), vehicle: Klucel (hydroxypropylcellulose) (HPC)): 100 % of control and 111 % of control | T/C (dose: 18.75 mg/kg/injection, schedule: Q01DX009 (ip), vehicle: Klucel (hydroxypropylcellulose) (HPC)): 106 % of control | T/C (dose: 25.0 mg/kg/injection, schedule: Q01DX001 (ip), vehicle: Klucel (hydroxypropylcellulose) (HPC)): 95 % of control and 112 % of control | T/C (dose: 25.0 mg/kg/injection, schedule: Q04DX003 (ip), vehicle: saline with Tween-80): 108 % of control | T/C (dose: 29.0 mg/kg/injection, schedule: Q01DX015 (ip), vehicle: carboxymethylcellulose (CMC)): 102 % of control | T/C (dose: 37.5 mg/kg/injection, schedule: Q01DX001 (ip), vehicle: Klucel (hydroxypropylcellulose) (HPC)): 101 % of control and 122 % of control | T/C (dose: 37.5 mg/kg/injection, schedule: Q01DX009 (ip), vehicle: Klucel (hydroxypropylcellulose) (HPC)): 89 % of control | T/C [7]: 92 % of control | T/C (dose: 85.0 mg/kg/injection, schedule: Q04DX003 (ip), vehicle: Klucel (hydroxypropylcellulose) (HPC)): 115 % of control | T/C (dose: 88.8 mg/kg/injection, schedule: Q01DX001 (ip), vehicle: carboxymethylcellulose (CMC)): 115 % of control | T/C (dose: 100.0 mg/kg/injection, schedule: Q01DX001 (ip), vehicle: Klucel (hydroxypropylcellulose) (HPC)): 119 % of control | T/C (dose: 100.0 mg/kg/injection, schedule: Q01DX001 (ip), vehicle: carboxymethylcellulose (CMC)): 104 % of control | T/C (dose: 133.0 mg/kg/injection, schedule: Q01DX001 (ip), vehicle: carboxymethylcellulose (CMC)): 113 % of control and 115 % of control

Nc1ncnc2c1ncn2C1COC(CO)C1O (stereo unspecified)
T/C [1]: 103 % of control | T/C [2]: 107 % of control | T/C [3]: 107 % of control

NC(=Nc1ccccc1)SCc1ccc([N+](=O)[O-])cc1
T/C (dose: 50.0 mg/kg/injection, schedule: Q01DX009 (ip), vehicle: Klucel (hydroxypropylcellulose) (HPC)): 108 % of control | T/C (dose: 100.0 mg/kg/injection, schedule: Q01DX005 (ip), vehicle: Klucel (hydroxypropylcellulose) (HPC)): 97 % of control | T/C (dose: 100.0 mg/kg/injection, schedule: Q01DX009 (ip), vehicle: Klucel (hydroxypropylcellulose) (HPC)): 104 % of control | T/C (dose: 100.0 mg/kg/injection, schedule: Q04DX002 (ip), vehicle: Klucel (hydroxypropylcellulose) (HPC)): 104 % of control | T/C (dose: 200.0 mg/kg/injection, schedule: Q01DX005 (ip), vehicle: Klucel (hydroxypropylcellulose) (HPC)): 92 % of control | T/C (dose: 200.0 mg/kg/injection, schedule: Q04DX002 (ip), vehicle: Klucel (hydroxypropylcellulose) (HPC)): 112 % of control | T/C (dose: 400.0 mg/kg/injection, schedule: Q04DX002 (ip), vehicle: Klucel (hydroxypropylcellulose) (HPC)): 89 % of control

CN(CCc1cn(C2OC(CO)C(O)C(O)C2O)cn1)C(=O)/C=C/c1ccccc1 (stereo unspecified)
T/C (dose: 100.0 mg/kg/injection, schedule: Q01DX005 (ip), vehicle: saline): 112 % of control

O=C[C@@H](CO)O[C@H](C=O)c1c[nH]c(=O)[nH]c1=O
T/C (dose: 66.0 mg/kg/injection, schedule: Q03DX003 (ip), vehicle: saline): 213 % of control | T/C (dose: 80.0 mg/kg/injection, schedule: Q04DX003 (ip), vehicle: saline): 168 % of control | T/C [8]: 209 % of control | T/C (dose: 120.0 mg/kg/injection, schedule: Q04DX003 (ip), vehicle: saline): 252 % of control | T/C (dose: 140.0 mg/kg/injection, schedule: Q04DX003 (ip), vehicle: saline): 204 % of control | T/C (dose: 150.0 mg/kg/injection, schedule: Q03DX003 (ip), vehicle: saline): 217 % of control

CC12CCC(=O)C=C1CCC1C2CCC2(C)C(OC(=O)CN3CC3)CCC12 (stereo unspecified)
T/C (dose: 100.0 mg/kg/injection, schedule: Q01DX001 (sc), vehicle: steriod suspending solution): 101 % of control | T/C (dose: 200.0 mg/kg/injection, schedule: Q01DX001 (sc), vehicle: steriod suspending solution): 97 % of control | T/C (dose: 400.0 mg/kg/injection, schedule: Q01DX001 (sc), vehicle: steriod suspending solution): 103 % of control

Cc1nc(N)nc(N)c1[N+](=O)[O-]
T/C (dose: 65.0 mg/kg/injection, schedule: Q01DX Z (oral), vehicle: methylcellulose (MC)): 105 % of control | T/C (dose: 125.0 mg/kg/injection, schedule: Q01DX Z (oral), vehicle: methylcellulose (MC)): 100 % of control | T/C (dose: 250.0 mg/kg/injection, schedule: Q01DX Z (oral), vehicle: methylcellulose (MC)): 100 % of control

CCOC(=O)C1=C(O)c2c(sc(C)c2C)N(S(=O)(=O)c2ccc(C)cc2)CC1
T/C (dose: 50.0 mg/kg/injection, schedule: Q01DX009 (ip), vehicle: saline with Tween-80): 93 % of control | T/C [7]: 97 % of control | T/C (dose: 100.0 mg/kg/injection, schedule: Q01DX009 (ip), vehicle: saline with Tween-80): 90 % of control | T/C [9]: 101 % of control | T/C (dose: 200.0 mg/kg/injection, schedule: Q01DX009 (ip), vehicle: saline with Tween-80): 96 % of control | T/C [10]: 93 % of control | T/C [11]: 98 % of control

CN(C(N)=S)c1ccccc1
T/C [9]: 101 % of control | T/C [10]: 102 % of control | T/C [11]: 104 % of control

COC(Cl)C(Cl)(Cl)Cl (stereo unspecified)
T/C (dose: 50.0 mg/kg/injection, schedule: Q01DX009 (ip), vehicle: saline): 93 % of control | T/C [4]: 103 % of control | T/C (dose: 100.0 mg/kg/injection, schedule: Q01DX009 (ip), vehicle: saline): 88 % of control | T/C [8]: 103 % of control | T/C [5]: 90 % of control | T/C (dose: 200.0 mg/kg/injection, schedule: Q01DX009 (ip), vehicle: saline): 91 % of control | T/C (dose: 200.0 mg/kg/injection, schedule: Q04DX003 (ip), vehicle: saline): 100 % of control | T/C [6]: 92 % of control
